Reference: patent US20240262832A1, “SMALL MOLECULE MODULATORS OF GLUCOCEREBROSIDASE ACTIVITY AND USES THEREOF” (Vanqua Bio, Inc., priority 2021, published 2024)

target: T1, GCase (Homo sapiens, UniProt P04062); experiment: activation of GCase in a live cell PFB assay in HELA cells; format: cell-based
T1 construct: endogenous in cells; host or cells: HeLa cells
T1 sequence (P04062 40-536): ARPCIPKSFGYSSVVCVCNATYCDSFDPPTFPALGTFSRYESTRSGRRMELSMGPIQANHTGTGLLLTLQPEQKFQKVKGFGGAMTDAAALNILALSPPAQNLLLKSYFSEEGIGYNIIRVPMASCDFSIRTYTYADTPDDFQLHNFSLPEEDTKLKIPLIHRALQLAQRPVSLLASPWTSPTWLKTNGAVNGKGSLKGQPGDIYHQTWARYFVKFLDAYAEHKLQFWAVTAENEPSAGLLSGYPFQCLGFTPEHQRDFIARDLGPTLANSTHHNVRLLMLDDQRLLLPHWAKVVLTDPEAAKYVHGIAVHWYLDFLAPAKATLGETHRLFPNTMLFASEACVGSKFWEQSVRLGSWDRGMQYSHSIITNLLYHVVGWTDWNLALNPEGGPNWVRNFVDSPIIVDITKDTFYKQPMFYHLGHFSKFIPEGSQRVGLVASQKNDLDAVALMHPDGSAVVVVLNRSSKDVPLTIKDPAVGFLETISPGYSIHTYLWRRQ

| EC50 | SMILES |
| --- | --- |
| 10 to 50 µM | O=C(c1ccc2cc[nH]c2c1)N1CCC(Oc2cccc(C(F)(F)F)n2)CC1 [Compound 327, (1H-Indol-6-yl)(4-((6-(trifluoromethyl)pyridin-2-yl)oxy)piperidin-1-yl)methanone] |
| 10 to 50 µM | C[C@@H]1CCN(c2cnc3cnn(CC(F)F)c3n2)C[C@H]1COc1cccnc1C(F)(F)F [Compound 48d, 1-(2,2-difluoroethyl)-6-((3S,4R)-4-methyl-3-(((2-(trifluoromethyl)pyridin-3-yl)oxy)methyl)piperidin-1-yl)-1H-pyrazolo[3,4-b]pyrazine] |
| > 100 µM | COc1ccc(OCC2CCN(C(=O)Cc3ccccn3)CC2)cc1 [Compound 466] |
| 10 to 50 µM | FC(F)Cn1ncc2ncc(N3C[C@@H]4[C@@H](COc5cc(C(F)(F)F)ccn5)[C@@H]4C3)nc21 [Compound 90, (1R,5S,6S)-3-[1-(2,2-difluoroethyl)-1H-pyrazolo[3,4-b]pyrazin-6-yl]-6-({[4-(trifluoromethyl)pyridin-2-yl]oxy}methyl)-3-azabicyclo[3.1.0]hexane] |
| 10 to 50 µM | FC(F)Cn1ncc2ncc(N3CCC(Oc4cc(C(F)(F)F)ccn4)CC3)nc21 [Compound 326, 1-(2,2-Difluoroethyl)-6-(4-((4-(trifluoromethyl)pyridin-2-yl)oxy)piperidin-1-yl)-1H-pyrazolo[3,4-b]pyrazine] |
| > 100 µM | Cn1c(-c2ccc(F)cn2)nc2ncc(N3C[C@@H]4[C@@H](COc5cc(F)cc(F)c5)[C@@H]4C3)nc21 [Compound 286, 6-((1R,5S,6r)-6-((3,5-Difluorophenoxy)methyl)-3-azabicyclo[3.1.0]hexan-3-yl)-2-(5-fluoropyridin-2-yl)-1-methyl-1H-imidazo[4,5-b]pyrazine] |
| 10 to 50 µM | CCNC(=O)c1ccc(N2CCC(COc3ccc(OC)cc3)CC2)nc1 [Compound 438] |
| < 10 µM | CCn1c(=O)n(CC)c2nc(N3C[C@@H](C)C[C@@H](COc4cccnc4C(F)(F)F)C3)cnc21 [Compound 288a, 1,3-Diethyl-5-((3S,5R)-3-methyl-5-(((2-(trifluoromethyl)pyridin-3-yl)oxy)methyl)piperidin-1-yl)-1,3-dihydro-2H-imidazo[4,5-b]pyrazin-2-one] |
| < 10 µM | FC(F)(F)c1cccc(OC[C@@H]2[C@H]3CN(c4cncc(-c5nncs5)n4)C[C@@H]23)n1 [Compound 60, (1R,5S,6S)-3-[6-(1,3,4-thiadiazol-2-yl)pyrazin-2-yl]-6-({[6-(trifluoromethyl)pyridin-2-yl]oxy}methyl)-3-azabicyclo[3.1.0]hexane] |
| 10 to 50 µM | FC(F)Cn1ncc2ncc(N3C[C@H](COc4cccnc4C(F)(F)F)C[C@H](OC(F)F)C3)nc21 [Compound 299a, 1-(2,2-Difluoroethyl)-6-((3S,5R)-3-(difluoromethoxy)-5-(((2-(trifluoromethyl)pyridin-3-yl)oxy)methyl)piperidin-1-yl)-1H-pyrazolo[3,4-b]pyrazine] |
| > 100 µM | COc1ccc(OCC2CCN(Cc3[nH]cnc3C)CC2)cc1 [Compound 453] |
| 10 to 50 µM | COc1ccc2c(c1)CCCC2CC(=O)N1CCCC(COc2ccccc2)C1 (stereo not shown) [Compound 135] |
| > 100 µM | CCN1CCC(NC(=O)N2CCC(COc3ccc(OC)cc3)CC2)C1 (stereo not shown) [Compound 434] |
| 10 to 50 µM | Cc1cccnc1OCC1CCN(C(=O)Cc2cn(C)c3ccccc23)CC1 [Compound 359] |
| 10 to 50 µM | COc1ccc(OCC2CCN(C(=O)c3cc(C)oc3C)CC2)cc1 [Compound 459] |
| 50 to 100 µM | COc1ccc(OCC2CCN(C(=O)Nc3cnn(C)c3C)CC2)cc1 [Compound 439] |
| < 10 µM | FC(F)(F)COCCn1ncc2ncc(N3CCCC(COc4cccnc4C(F)(F)F)C3)nc21 (stereo not shown) [Compound 248, 1-(2-(2,2,2-Trifluoroethoxy)ethyl)-6-(3-(((2-(trifluoromethyl)pyridin-3-yl)oxy)methyl)piperidin-1-yl)-1H-pyrazolo[3,4-b]pyrazine] |
| 10 to 50 µM | FC(F)Cn1ncc2ncc(N3C[C@@H]4[C@@H](COc5ccc(C(F)(F)F)cn5)[C@@H]4C3)nc21 [Compound 61, (1R,5S,6S)-3-[1-(2,2-difluoroethyl)-1H-pyrazolo[3,4-b]pyrazin-6-yl]-6-({[5-(trifluoromethyl)pyridin-2-yl]oxy}methyl)-3-azabicyclo[3.1.0]hexane] |
| 10 to 50 µM | Cc1cccnc1OCC1CCN(C(=O)C2(c3ccccc3)CCOCC2)CC1 [Compound 360] |
| 10 to 50 µM | Cc1nc(-n2cccc2)sc1C(=O)N1CCCC(COc2ccccc2)C1 (stereo not shown) [Compound 163] |

| EC50 | SMILES |
| --- | --- |
| 10 to 50 µM | O=C(c1cnc2c(cnn2-c2ccccc2)n1)N1CCCC(COc2cccnc2C(F)(F)F)C1 (stereo not shown) [Compound 103, (1-Phenyl-1H-pyrazolo[3,4-b]pyrazin-5-yl)(3-(((2-(trifluoromethyl)pyridin-3-yl)oxy)methyl)piperidin-1-yl)methanone] |
| < 10 µM | O=C(N1CCCC(COc2ccccc2)C1)C1(c2cnc(-c3ccccc3)s2)CCOCC1 (stereo not shown) [Compound 279, (3-(Phenoxymethyl)piperidin-1-yl)(4-(2-phenylthiazol-5-yl)tetrahydro-2H-pyran-4-yl)methanone] |
| > 100 µM | O=C(c1ccc(Cn2cccn2)o1)N1CCC(OCc2ccccc2)CC1 [Compound 449] |
| 10 to 50 µM | Cc1ccccc1OCC1CCCN(C(=O)c2cnn3c(-c4ccccc4)ccc(Cl)c23)C1 (stereo not shown) [Compound 25, (4-Chloro-7-phenylpyrazolo[1,5-a]pyridin-3-yl)(3-((o-tolyloxy)methyl)piperidin-1-yl)methanone] |
| 10 to 50 µM | FC(F)(F)c1ncccc1OC[C@@H]1[C@H]2CN(c3nccc(-c4nncs4)n3)C[C@@H]12 [Compound 121, (1R,5S,6r)-3-(4-(1,3,4-Thiadiazol-2-yl)pyrimidin-2-yl)-6-(((2-(trifluoromethyl)pyridin-3-yl)oxy)methyl)-3-azabicyclo[3.1.0]hexane] |
| 10 to 50 µM | COc1ccc(OCC2CCN(CC(=O)Nc3cn(C)nc3C)CC2)cc1 [Compound 479] |
| 50 to 100 µM | Fc1cnc(OC[C@@H]2[C@H]3CN(c4cnc5cnn(C6COC6)c5n4)C[C@@H]23)c(F)c1 [Compound 120, 6-((1R,5S,6r)-6-(((3,5-difluoropyridin-2-yl)oxy)methyl)-3-azabicyclo[3.1.0]hexan-3-yl)-1-(oxetan-3-yl)-1H-pyrazolo[3,4-b]pyrazine] |
| < 10 µM | CC1C(COc2cccnc2C(F)(F)F)CCCN1c1cnc2cnn(CC(F)F)c2n1 (stereo not shown) [Compound 116, 1-(2,2-Difluoroethyl)-6-(2-methyl-3-(((2-(trifluoromethyl)pyridin-3-yl)oxy)methyl)piperidin-1-yl)-1H-pyrazolo[3,4-b]pyrazine] |
| 10 to 50 µM | CC(C)(C)CC(=O)N1CCC(COc2cccc(C(F)(F)F)n2)CC1 [Compound 351] |
| 10 to 50 µM | FC(F)Cn1ncc2ncc(N3C[C@@H]4[C@@H](COc5ccnc(C(F)(F)F)c5)[C@@H]4C3)nc21 [Compound 92, (1R,5S,6S)-3-[1-(2,2-difluoroethyl)-1H-pyrazolo[3,4-b]pyrazin-6-yl]-6-({[2-(trifluoromethyl)pyridin-4-yl]oxy}methyl)-3-azabicyclo[3.1.0]hexane] |
| 10 to 50 µM | CN(CC1CCCN(c2cnc3cnn(CC(F)F)c3n2)C1)c1cccc(C(F)(F)F)n1 (stereo not shown) [Compound 239, N-((1-(1-(2,2-Difluoroethyl)-1H-pyrazolo[3,4-b]pyrazin-6-yl)piperidin-3-yl)methyl)-N-methyl-6-(trifluoromethyl)pyridin-2-amine] |
| 10 to 50 µM | O=C(Cc1csc(-c2ccccc2)n1)N1CCC(Oc2cccc(C(F)(F)F)n2)CC1 [Compound 402, 2-(2-Phenyl-1,3-thiazol-4-yl)-1-(4-{[6-(trifluoromethyl)pyridin-2-yl]oxy}piperidin-1-yl)ethan-1-one] |
| < 10 µM | FC(F)Cn1ncc2ncc(N3CCC(F)(F)C(COc4cccnc4C(F)(F)F)C3)nc21 (stereo not shown) [Compound 20, 3-({1-[1-(2,2-difluoroethyl)-1H-pyrazolo[3,4-b]pyrazin-6-yl]-4,4-difluoropiperidin-3-yl}methoxy)-2-(trifluoromethyl)pyridine] |
| 10 to 50 µM | O=C(c1ccc2cc[nH]c2c1)N1CCC(Oc2ncccc2C(F)(F)F)CC1 [Compound 321, (1H-Indol-6-yl)(4-((3-(trifluoromethyl)pyridin-2-yl)oxy)piperidin-1-yl)methanone] |
| > 100 µM | CCn1c(-c2nncs2)nc2ncc(N3CCCC(COc4ccccc4C)C3)nc21 (stereo not shown) [Compound 30, 2-(1-Ethyl-6-(3-((o-tolyloxy)methyl)piperidin-1-yl)-1H-imidazo[4,5-b]pyrazin-2-yl)-1,3,4-thiadiazole] |
| 10 to 50 µM | N#Cc1cc(C(F)(F)F)cnc1OC1CCN(C(=O)c2ccc3cc[nH]c3c2)CC1 [Compound 332, 2-((1-(1H-Indole-6-carbonyl)piperidin-4-yl)oxy)-5-(trifluoromethyl)nicotinonitrile] |
| 10 to 50 µM | FC(F)(F)Cn1ncc2ncc(N3C[C@@H]4[C@@H](COc5cccnc5C(F)(F)F)[C@@H]4C3)nc21 [Compound 101, (1R,5S,6S)-3-[1-(2,2,2-Trifluoroethyl)-1H-pyrazolo[3,4-b]pyrazin-6-yl]-6-({[2-(trifluoromethyl)pyridin-3-yl]oxy}methyl)-3-azabicyclo[3.1.0]hexane] |
| 10 to 50 µM | O=C(C1CCCCC12CC2)N1CCCC(COc2ccccc2)C1 (stereo not shown) [Compound 209] |
| 10 to 50 µM | CN1CCc2cc(C(=O)N3CCCC(COc4ccccc4)C3)ccc21 (stereo not shown) [Compound 181] |
| 10 to 50 µM | CCOc1ccccc1C(=O)N1CCC(Oc2ccc(C(F)(F)F)cn2)CC1 [Compound 391] |
